Consider 22 molecules from ChEMBL document CHEMBL1128651, “Preparation and in vitro activity of aryl ether derivatives of the FK-506 related immunosuppressive macrolides ascomycin and L-683,742” (Bioorg Med Chem Lett, 1995).

One may read the IC50 as the concentration at which inhibition is half-maximal. High values mean a need for much substance, low ones inhibition by little substance.

This assay concerns Murine T-cell line. Put plainly: Inhibition of proliferation of PMA and Ionomycin stimulated murine T cells. It counts as functional, cell-based. The following applies: Mus musculus.
`CC[C@@H]1/C=C(\C)C[C@H](C)C[C@H](OC)[C@H]2O[C@@](O)(C(=O)C(=O)N3CCCC[C@H]3C(=O)O[C@H](/C(C)=C/[C@@H]3CC[C@@H](Oc4cc(C(F)(F)F)cc(C(F)(F)F)c4)[C@H](OC)C3)[C@H](C)[C@@H](O)CC1=O)[C@H](C)C[C@@H]2OC` displayed an IC50 of 607 nM.

In turn, `CC[C@@H]1/C=C(\C)C[C@H](C)C[C@H](OC)[C@H]2O[C@@](O)(C(=O)C(=O)N3CCCC[C@H]3C(=O)O[C@H](/C(C)=C/[C@@H]3CC[C@@H](Oc4ccccc4)[C@H](OC)C3)[C@H](C)[C@@H](O)CC1=O)[C@H](C)C[C@@H]2OC` showed an IC50 of 5.4 nM.

Consider `CC[C@@H]1/C=C(\C)C[C@H](C)C[C@H](OC)[C@H]2O[C@@](O)(C(=O)C(=O)N3CCCC[C@H]3C(=O)O[C@H](/C(C)=C/[C@@H]3CC[C@@H](Oc4ccc(C)cc4)[C@H](O)C3)[C@H](C)[C@@H](O)CC1=O)[C@H](C)C[C@@H]2OC`, for which the half-maximal inhibitory concentration (IC50) is 6 nM.

`CC[C@@H]1/C=C(\C)C[C@H](C)C[C@H](OC)[C@H]2O[C@@](O)(C(=O)C(=O)N3CCCC[C@H]3C(=O)O[C@H](/C(C)=C/[C@@H]3CC[C@@H](O)[C@H](Oc4ccc(C)cc4)C3)[C@H](C)[C@@H](O)CC1=O)[C@H](C)C[C@@H]2OC` showed an IC50 of 2.6 nM.

The molecule `CC[C@@H]1/C=C(\C)C[C@H](C)C[C@H](OC)[C@H]2O[C@@](O)(C(=O)C(=O)N3CCCC[C@H]3C(=O)O[C@H](/C(C)=C/[C@@H]3CC[C@@H](Oc4ccc(F)cc4)[C@H](OC)C3)[C@H](C)[C@@H](O)CC1=O)[C@H](C)C[C@@H]2OC` came in with an IC50 of 3.4 nM.

For the molecule `CC[C@@H]1/C=C(\C)C[C@H](C)C[C@H](OC)[C@H]2O[C@@](O)(C(=O)C(=O)N3CCCC[C@H]3C(=O)O[C@H](/C(C)=C/[C@@H]3CC[C@@H](Oc4ccccc4)[C@H](O)C3)[C@H](C)[C@@H](O)CC1=O)[C@H](C)C[C@@H]2OC`, half-maximal inhibition (IC50) required 5.2 nM.

Molecule `CC[C@@H]1/C=C(\C)C[C@H](C)C[C@H](OC)[C@H]2O[C@@](O)(C(=O)C(=O)N3CCCC[C@H]3C(=O)O[C@H](/C(C)=C/[C@@H]3CC[C@@H](O)[C@H](Oc4ccc(O)cc4)C3)[C@H](C)[C@@H](O)CC1=O)[C@H](C)C[C@@H]2OC` came in with an IC50 of 0.9 nM.

Molecule `CC[C@@H]1/C=C(\C)C[C@H](C)C[C@H](OC)[C@H]2O[C@@](O)(C(=O)C(=O)N3CCCC[C@H]3C(=O)O[C@H](/C(C)=C/[C@@H]3CC[C@@H](Oc4ccc(O)cc4)[C@H](O)C3)[C@H](C)[C@@H](O)CC1=O)[C@H](C)C[C@@H]2OC` had an IC50 of 1.6 nM.

On to `CC[C@@H]1/C=C(\C)C[C@H](C)C[C@H](OC)[C@H]2O[C@@](O)(C(=O)C(=O)N3CCCC[C@H]3C(=O)O[C@H](/C(C)=C/[C@@H]3CC[C@@H](Oc4cccc(C)c4)[C@H](OC)C3)[C@H](C)[C@@H](O)CC1=O)[C@H](C)C[C@@H]2OC`, for which the IC50 came to 5.4 nM.

`CC[C@@H]1/C=C(\C)C[C@H](C)C[C@H](OC)[C@H]2O[C@@](O)(C(=O)C(=O)N3CCCC[C@H]3C(=O)O[C@H](/C(C)=C/[C@@H]3CC[C@@H](Oc4ccc(O)cc4)[C@H](OC)C3)[C@H](C)[C@@H](O)CC1=O)[C@H](C)C[C@@H]2OC` showed an IC50 of 0.8 nM.

Molecule `CC[C@@H]1/C=C(\C)C[C@H](C)C[C@H](OC)[C@H]2O[C@@](O)(C(=O)C(=O)N3CCCC[C@H]3C(=O)O[C@H](/C(C)=C/[C@@H]3CC[C@@H](O)[C@H](Oc4ccccc4)C3)[C@H](C)[C@@H](O)CC1=O)[C@H](C)C[C@@H]2OC` registered an IC50 of 3.2 nM.

`CC[C@@H]1/C=C(\C)C[C@H](C)C[C@H](OC)[C@H]2O[C@@](O)(C(=O)C(=O)N3CCCC[C@H]3C(=O)O[C@H](/C(C)=C/[C@@H]3CC[C@@H](O)[C@H](O)C3)[C@H](C)[C@@H](O)CC1=O)[C@H](C)C[C@@H]2OC` showed an IC50 of 1.63 nM.

`CC[C@@H]1/C=C(\C)C[C@H](C)C[C@H](OC)[C@H]2O[C@@](O)(C(=O)C(=O)N3CCCC[C@H]3C(=O)O[C@H](/C(C)=C/[C@@H]3CC[C@@H](O)[C@H](Oc4ccc(OC)cc4)C3)[C@H](C)[C@@H](O)CC1=O)[C@H](C)C[C@@H]2OC` displayed an IC50 of 0.9 nM.

In the case of `CC[C@@H]1/C=C(\C)C[C@H](C)C[C@H](OC)[C@H]2O[C@@](O)(C(=O)C(=O)N3CCCC[C@H]3C(=O)O[C@H](/C(C)=C/[C@@H]3CC[C@@H](Oc4ccc(C(F)(F)F)cc4)[C@H](OC)C3)[C@H](C)[C@@H](O)CC1=O)[C@H](C)C[C@@H]2OC`, the IC50 worked out at 35.8 nM.

In turn, `CC[C@@H]1/C=C(\C)C[C@H](C)C[C@H](OC)[C@H]2O[C@@](O)(C(=O)C(=O)N3CCCC[C@H]3C(=O)O[C@H](/C(C)=C/[C@@H]3CC[C@@H](Oc4cccc(OC)c4)[C@H](OC)C3)[C@H](C)[C@@H](O)CC1=O)[C@H](C)C[C@@H]2OC` yielded an IC50 of 3.4 nM.

Take `CC[C@@H]1/C=C(\C)C[C@H](C)C[C@H](OC)[C@H]2O[C@@](O)(C(=O)C(=O)N3CCCC[C@H]3C(=O)O[C@H](/C(C)=C/[C@@H]3CC[C@@H](Oc4ccc(SC)cc4)[C@H](OC)C3)[C@H](C)[C@@H](O)CC1=O)[C@H](C)C[C@@H]2OC`: the 50% inhibitory concentration (IC50) was determined as 2.6 nM.

In the case of `CC[C@@H]1/C=C(\C)C[C@H](C)C[C@H](OC)[C@H]2O[C@@](O)(C(=O)C(=O)N3CCCC[C@H]3C(=O)O[C@H](/C(C)=C/[C@@H]3CC[C@@H](Oc4cccc(O)c4)[C@H](OC)C3)[C@H](C)[C@@H](O)CC1=O)[C@H](C)C[C@@H]2OC`, the IC50 came to 1.7 nM.

With `CC[C@@H]1/C=C(\C)C[C@H](C)C[C@H](OC)[C@H]2O[C@@](O)(C(=O)C(=O)N3CCCC[C@H]3C(=O)O[C@H](/C(C)=C/[C@@H]3CC[C@@H](Oc4ccc(N(C)C)cc4)[C@H](OC)C3)[C@H](C)[C@@H](O)CC1=O)[C@H](C)C[C@@H]2OC`, it took 1.1 nM to reach half-maximal inhibition (IC50).

`CC[C@@H]1/C=C(\C)C[C@H](C)C[C@H](OC)[C@H]2O[C@@](O)(C(=O)C(=O)N3CCCC[C@H]3C(=O)O[C@H](/C(C)=C/[C@@H]3CC[C@@H](Oc4ccc(OC)cc4)[C@H](OC)C3)[C@H](C)[C@@H](O)CC1=O)[C@H](C)C[C@@H]2OC` registered an IC50 of 1.4 nM.

As for `CC[C@@H]1/C=C(\C)C[C@H](C)C[C@H](OC)[C@H]2O[C@@](O)(C(=O)C(=O)N3CCCC[C@H]3C(=O)O[C@H](/C(C)=C/[C@@H]3CC[C@@H](Oc4ccc(C)cc4)[C@H](OC)C3)[C@H](C)[C@@H](O)CC1=O)[C@H](C)C[C@@H]2OC`, the IC50 turned out to be 2.7 nM.

With `CC[C@@H]1/C=C(\C)C[C@H](C)C[C@H](OC)[C@H]2O[C@@](O)(C(=O)C(=O)N3CCCC[C@H]3C(=O)O[C@H](/C(C)=C/[C@@H]3CC[C@@H](Oc4ccc(OC)cc4)[C@H](O)C3)[C@H](C)[C@@H](O)CC1=O)[C@H](C)C[C@@H]2OC`, the IC50 was 1.2 nM.

Take `CC[C@@H]1/C=C(\C)C[C@H](C)C[C@H](OC)[C@H]2O[C@@](O)(C(=O)C(=O)N3CCCC[C@H]3C(=O)O[C@H](/C(C)=C/[C@@H]3CC[C@@H](O)[C@H](OC)C3)[C@H](C)[C@@H](O)CC1=O)[C@H](C)C[C@@H]2OC` [ASCOMYCIN]: the midpoint of inhibition, the IC50, lay at 0.69 nM.
